Data: PubChem BioAssay (NCI)
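Each compound was tested at five concentrations against cells in 96-well plates for 48 hours. TGI is the concentration that stops growth completely.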

Assays:
Experiment in all cases: inhibition of tumour cell growth, NCI panel, 48 h
[1] = system: HCC-2998 colon
[2] = system: HCT-15 colon
[3] = system: OVCAR-8 ovarian
[4] = system: T-47D breast
[5] = system: HOP-62 NSCLC
[6] = system: PC-3 prostate
[7] = system: NCI/ADR-RES ovarian
[8] = system: 786-0 renal
[9] = system: OVCAR-4 ovarian
[10] = system: CCRF-CEM leukemia
[11] = system: M14 melanoma
[12] = system: U251 CNS
[13] = system: A498 renal
[14] = system: UACC-257 melanoma
[15] = system: SR leukemia

SMILES | TGI [1] [µM] | TGI [2] [µM] | TGI [3] [µM] | TGI [4] [µM] | TGI [5] [µM] | TGI [6] [µM] | TGI [7] [µM] | TGI [8] [µM] | TGI [9] [µM] | TGI [10] [µM] | TGI [11] [µM] | TGI [12] [µM] | TGI [13] [µM] | TGI [14] [µM] | TGI [15] [µM]
c1ccc2c(c1)ncn2CCn1ccnc1 | > 100 | > 100 | > 100 | > 100 | > 100 | > 100 | > 100 | > 100 | > 100 | > 100 | > 100 | > 100 | > 100 | – | –
CC1(C)CC(=O)C(CC2C(=O)c3ccccc3C2=O)C(=O)C1C(=O)C(=O)Nc1cccc2ccc(O)cc12 (stereo unspecified) | > 100 | > 100 | > 100 | > 100 | – | > 100 | > 100 | > 100 | > 100 | > 100 | > 100 | > 100 | 69.8 | > 100 | –
N#Cc1nc(-c2ccccc2O)oc1N | – | > 100 | > 100 | – | > 100 | > 100 | – | > 100 | – | > 100 | > 100 | > 100 | > 100 | > 100 | –
CCOC(=O)C1=COC(C)(C)CC1=O | – | > 100 | > 100 | > 100 | > 100 | > 100 | > 100 | > 100 | > 100 | – | > 100 | > 100 | > 100 | > 100 | –
c1csc(-c2sc(-c3ccsc3)cc2Cc2ccsc2)c1 | > 10 | > 10 | > 10 | > 10 | > 10 | > 10 | – | > 10 | > 10 | > 10 | > 10 | – | – | > 10 | > 10
Cc1ccc([S+](c2ccccc2)c2cc(C)ccc2C)cc1 (stereo unspecified) | 28.5 | – | > 100 | – | 90.8 | – | – | > 100 | > 100 | > 100 | > 100 | – | 32.1 | > 100 | > 100
O=C(Nc1ccc(Cl)cc1Cl)c1cc2nc3ccccc3c(=O)n2c2ccccc12 | > 10 | > 10 | > 10 | > 10 | > 10 | > 10 | > 10 | > 10 | – | > 10 | > 10 | > 10 | > 10 | > 10 | –
COc1ccc(C(=O)/C=C/c2ccc(OCC#N)cc2)cc1OC | 33.3 | 45.5 | > 100 | 28.8 | 36.4 | – | 50.2 | 86.7 | > 100 | 31.3 | 37.3 | 29.6 | – | – | 61.2
COC(=O)NN/C=C(\C=Nc1ccccc1)[N+](=O)[O-] | > 100 | > 100 | > 100 | – | > 100 | – | – | > 100 | > 100 | > 100 | > 100 | > 100 | – | > 100 | > 100
